Results on 28 compounds are retold here after patent US20090098548A1, “MODULATORS OF ENZYMATIC NUCLEIC ACID ELEMENTS MOBILIZATION” (priority 2004, published 2009).

The target of test [1] is T1, Tn5 transposase (EK54, MA56 and LP372 hyperactive mutant version) (Escherichia coli, UniProt Q46731, E54K/L372P/M56A).
T1 construct: made in house
T1 sequence (Q46731 1-476 E54K/M56A/L372P): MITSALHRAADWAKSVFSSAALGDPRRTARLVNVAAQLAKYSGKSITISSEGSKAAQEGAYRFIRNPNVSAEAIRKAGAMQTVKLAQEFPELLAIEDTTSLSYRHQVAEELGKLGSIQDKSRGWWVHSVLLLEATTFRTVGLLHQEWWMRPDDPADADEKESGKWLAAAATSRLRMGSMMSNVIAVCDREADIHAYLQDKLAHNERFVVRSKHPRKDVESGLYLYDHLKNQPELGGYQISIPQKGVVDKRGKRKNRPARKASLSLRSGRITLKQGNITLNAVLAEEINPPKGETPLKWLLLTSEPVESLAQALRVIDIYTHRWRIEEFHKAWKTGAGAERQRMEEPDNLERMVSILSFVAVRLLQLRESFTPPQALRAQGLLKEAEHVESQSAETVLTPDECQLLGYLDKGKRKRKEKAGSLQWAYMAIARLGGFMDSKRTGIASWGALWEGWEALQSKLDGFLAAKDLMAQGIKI
In words: Inhibition of Tn5 transposase-DNA complex assembly (synapsis), gel shift assay. In kind it is binding, prokaryotic (Tn5 transposon, IS4 family). Conditions: 800 nM transposase, 160 nM dsDNA, 60 bp DNA, fit to exponential decay, ± SD from fit, at least two, typically three experiments. How it is done: The data in this graph were obtained from multiple experiments. Each data point represents at least two, typically three, independent experiments. Error is represented as the standard deviation (SD) from the fit of the data to the equation used to calculate the IC50. Tnp=transposase.
IC50 values were determined from gel shift assays, similar to FIG. 5. […] Each value represents at least two, typically three, independent experiments. Error is represented as the standard deviation (SD) from the fit of the data to the equation used to calculate the IC50.
DNA substrates: The oligonucleotides were purchased HPLC purified from IDT. dsDNA was formed by adding two μmoles of each oligonucleotide to 10 mM Tris-HCl pH 7.9 and 10 mM NaCl. The oligonucleotides were either heated to 96° C. for one minute followed by a decrease in temperature at 0.1° C./sec to 4° C. or heated to 90° C. in a 2 L water bath and cooled to 8° C. overnight. The transferred strand was 5′ end labeled with either rhodamine green for FP or fluorescein for gel shift assays.
The 19 bp DNA sequences used for FP assays were 5° C. […] The 40 bp DNA sequences used for the gel shift assays during assay development were 5° C.
(§1) Transposase and integrase purification: The EK54, MA56 and LP372 hyperactive mutant version of transposase was used for all assays and is referred to as transposase throughout this work. Transposase and integrase proteins were purified as described in Ason, B., and W. S. Reznikoff, J Mol Biol 335:1213-25, 2004 and Taganov, K. D. et al., Journal of Virology 78:5848-55, 2004, both are herein incorporated by reference in their entirety.
FP and gel-shift assays: Reactions were performed as described in Ason, B., and W. S. Reznikoff, J Mol Biol 335:1213-25, 2004, except 800 nM transposase and 160 nM dsDNA were used for complex formation. For FP analysis, 60 μL reactions were analyzed using the FP protocol on a Wallac Victor V plate reader and a 7% native polyacrylamide gel was used in gel shift assays. For compound screening and subsequent analysis, 1 μL of either DMSO or test compound (final concentration […]) was added to the synapsis reactions. Compound screening was carried out using a Beckman Coulter Biomek FX in a 384 well format. Compounds identified as hits were rescreened using gel shift assays under synapsis conditions with a 120 μM compound concentration. IC50 values were obtained by fitting inhibitor titration data (0, 0.01, 0.05, 0.1, 0.5, 2.5, 10, 20, 35, 50, 100, 200, 400, 800 μM) to an exponential decay.

The target of test [2] is T2, HIV-1 integrase (Human immunodeficiency virus type 1 group M subtype B, UniProt P04585). In words: HIV-1 integrase in vitro activity, 3' strand processing (denaturing PAGE). On the set-up: HIV-1 integrase (1 μM, final concentration); made in house. In kind it is biochemical. How it is done: The degree of 3′ strand processing is measured by the percentage of the signal obtained for the 3′ strand processing product relative to the total signal per lane. IN=integrase.
These values are calculated from data measuring the percentage of the 3′ strand processing product formed, as described in FIG. 6. Assay products are observed using PAGE, as described in the methods section. Each value represents at least two, typically three, independent experiments. Error is represented as the standard deviation (SD) from the fit of the data to the equation used to calculate the IC50.
Increasing concentrations (0.01, 0.1, 1, 10, 20, 30, 50, 75, 100 μM) of each compound were used to determine their ability to block HIV-1 integration in vivo and determine their inherent cytotoxicity, as described in the methods section of example 2 below. Reactions were performed in triplicate. Each compound is further analyzed for inhibition of integrase activity in vitro, as described in FIG. 6. Each value represents three independent experiments. Error is represented as the standard deviation (SD) from the fit of the data to the equation used to calculate the IC50. IN=integrase.
as §1
(§2) HIV-1 integrase assay: HIV-1 integrase activity was measured as described in Daniel, R. et al., AIDS Res Hum Retroviruses 20:135-44, 2004 (incorporated by reference in its entirety), except that 1.0 μL of either DMSO or inhibitor were added to the reactions. Briefly, HIV-1 integrase (1 μM, final concentration) was pre-incubated with various concentrations of inhibitor at 30° C. for 30 min. A 21-base pair ^32P labeled substrate (1×10^6 dpm), representing the U5 end of the viral genome, and MnCl2 (10 mM, final concentration) were subsequently added to the reaction. The reaction proceeded for 15 min. at 37° C. The reactions were subsequently quenched using EDTA (10 mM, final concentration), and the products separated on a 20% denaturing polyacrylamide gel.

A further test deals with T3, Tn5 transposase (Escherichia coli, UniProt Q46731, E54K/L372P/M56A).
T3 construct: made in house
The test is classed as binding. Conditions: read-out: IC50, inhibition of Tn5 transposase-DNA complex assembly; gel shift assays, inhibitor titration. A general note: Mobility shift assays separate free from complexed probe on a gel.

Test [3] addresses T2, HIV-1 integrase. Briefly: HIV-1 integrase assay (3' strand processing, PAGE). In kind it is biochemical. Further details: made in house. How it is done:
as §2

Where [4] appears, read: 1 μM integrase, pre-incubated 30° C. 30 min, 21-base pair 32P substrate, 10 mM MnCl2, 15 min 37° C., ± SD from fit, at least two, typically three experiments, read-out: HIV-1 integrase (3' strand processing) IC50.
The mark [5] stands for this setting: read-out: HIV-1 IN (integrase) in vitro IC50.

Where two headings read alike, the source gives them in different places.

By IC50 is commonly meant the point on the concentration scale where inhibition reaches its midpoint.

As for `O=c1oc2ccccc2c(O)c1C(c1cccc(F)c1)c1c(O)c2ccccc2oc1=O` [Compound 1], the IC50 in test [1] was determined as 8.1 ± 1.2 µM.

Take `COc1ccc(C(c2c(O)c3ccccc3oc2=O)c2c(O)c3ccccc3oc2=O)cc1CSc1ccccn1` [Compound 2]: the IC50 in test [1] came to 4.8 ± 0.4 µM.

`Cc1ccc(C(c2c(O)c3ccccc3oc2=O)c2c(O)c3ccccc3oc2=O)cc1` [Compound 3]: the IC50 in test [1] was found to be 3.5 ± 0.4 µM.

As for `COc1ccc(C(c2c(O)c3ccccc3oc2=O)c2c(O)c3ccccc3oc2=O)cc1Cn1nc(C)c([N+](=O)[O-])c1C` [Compound 4], the IC50 is 4.7 ± 0.4 µM in test [1] and 9 ± 2 µM on HIV-1 integrase [2] (setting [4]).

In the case of `COc1cc(C=C2SC(=S)NC2=O)cc(Cl)c1OC(C)C` [Compound 5], in test [1], the IC50 came out at 10 ± 1 µM.

In the case of `O=S(=O)(c1cc(Cl)cc(Cl)c1O)c1cc(Cl)cc(Cl)c1O` [Compound 6], the IC50 in test [1] was 4 ± 0.3 µM; on HIV-1 integrase [2] (setting [4]) it was 32 ± 9 µM.

`CCc1nnc(NS(=O)(=O)c2ccc(NC=CC(=O)c3ccc4ccccc4c3)cc2)s1` [Compound 7]: the concentration for half-maximal inhibition (IC50) in test [1] stood at 4 ± 0.6 µM.

For `Cc1ccc(C(=O)Nc2ccccc2C(=O)Nc2ccccc2C(=O)O)cc1` [Compound 8], the IC50 in test [1] was 8.7 ± 1 µM.

Consider `O=C1C(=C2c3ccccc3C(=O)C2C2c3ccccc3Oc3ccccc32)C(=O)c2ccccc21` (stereo not shown) [Compound 9], for which, in test [1], the IC50 was determined as 3.4 ± 0.7 µM.

Take `O=C(C1=C(O)C(=O)N(c2ccccc2)C1c1cccc([N+](=O)[O-])c1)c1ccccc1` (stereo not shown) [Compound 10-A]: the IC50 on HIV-1 integrase [2] (setting [5]) turned out to be 165 ± 35 µM.

As for `COc1ccc(N2C(=O)C(O)=C(C(=O)/C=C/c3ccccc3)C2c2cccc([N+](=O)[O-])c2)cc1` (stereo not shown) [Compound 10-B], the IC50 on HIV-1 integrase [2] (setting [5]) came to 22 ± 12 µM.

On to `COc1ccc(N2C(=O)C(O)=C(C(=O)/C=C/c3ccccc3)C2c2ccc([N+](=O)[O-])cc2)cc1` (stereo not shown) [Compound 10-C], for which, at HIV-1 integrase [2] (setting [5]), the IC50 was 46 ± 12 µM.

Turning to `O=C(/C=C/c1ccccc1)C1=C(O)C(=O)N(c2cccc(C(=O)O)c2)C1c1ccc([N+](=O)[O-])cc1` (stereo not shown) [Compound 10-D], the IC50 at HIV-1 integrase [2] (setting [5]) came to 87 ± 9 µM.

Regarding `COc1ccc(N2C(=O)C(O)=C(C(=O)/C=C/c3ccccc3)C2c2ccc(Cl)cc2)cc1` (stereo not shown) [Compound 10-E], the IC50 on HIV-1 integrase [2] (setting [5]) amounted to 12 ± 3 µM.

Consider `O=C(/C=C/c1ccccc1)C1=C(O)C(=O)N(c2cccc(C(F)(F)F)c2)C1c1ccc([N+](=O)[O-])cc1` (stereo not shown) [Compound 10-F], for which the IC50 at HIV-1 integrase [2] (setting [5]) stood at 11 ± 4 µM.

With `Cc1ccccc1N1C(=O)C(O)=C(C(=O)/C=C/c2ccccc2)C1c1ccc(Br)cc1` (stereo not shown) [Compound 10-G], on HIV-1 integrase [2] (setting [5]), the IC50 is 11 ± 2 µM.

In the case of `O=C(/C=C/c1ccccc1)C1=C(O)C(=O)N(c2ccccc2)C1c1cccc([N+](=O)[O-])c1` (stereo not shown) [Compound 10], the IC50 in test [1] was 35 ± 3 µM.

For `COc1cccc(OCCOc2cccc(C=C3SC(=S)NC3=O)c2)c1` [Compound 11], the IC50 in test [1] is 5.3 ± 0.9 µM.

Take `COc1cccc(C(c2c(O)c3ccccc3oc2=O)c2c(O)c3ccccc3oc2=O)c1` [Compound 12]: in test [1], the IC50 was found to be 9.5 ± 0.9 µM.

For the compound `COc1cc(C=C2SC(=S)NC2=O)ccc1OS(=O)(=O)c1ccccc1[N+](=O)[O-]` [Compound 14], the results for the concentration for half-maximal inhibition (IC50) (in test [1]; at HIV-1 integrase [2] (setting [4])) were 8.6 ± 0.8 µM and 17 ± 3 µM, respectively.

Turning to `O=C(Nc1ccccc1C(=O)O)c1ccc2c(c1)C(=O)N(c1ccccc1-c1ccccc1)C2=O` [Compound 15], the IC50 in test [1] came out at 20 ± 2 µM.

With `O=C(Nc1ccccc1C(=O)O)c1cccc(NC(=O)C(c2ccccc2)c2ccccc2)c1` [Compound 16], the IC50 in test [1] came to 46 ± 5 µM.

`O=C(Nc1ccccc1C(=O)O)c1ccc(NC(=O)C(c2ccccc2)c2ccccc2)cc1` [Compound 17]: in test [1], the IC50 came out at 9.3 ± 0.9 µM.

For the compound `O=C(O)C(Cc1ccccc1)N1C(=O)C(=Cc2ccc(Br)cc2)SC1=S` (stereo not shown) [Compound 18], in test [1], the IC50 came to 10 ± 1 µM.

In the case of `O=C(O)C(Cc1ccccc1)N1C(=O)C(=CC=Cc2ccccc2)SC1=S` (stereo not shown) [Compound 19], the IC50 in test [1] turned out to be 16 ± 2 µM.

`CCCOc1ccc(C(=O)Nc2ccc(Br)cc2C(=O)O)cc1` [Compound 20]: the IC50 in test [1] worked out at 20 ± 3 µM.

For the compound `O=C(NC(=S)Nc1cc([N+](=O)[O-])cc(Cl)c1O)c1ccccc1` [aromatic thiourea], the IC50 at Tn5 transposase came out at 24 µM.

With `O=C(C1=C(O)C(=O)N(c2ccccc2)C1c1cccc([N+](=O)[O-])c1)c1ccccc1` (stereo not shown) [compound 10-A], the “inhibition of integrase in vitro (in words)” value against HIV-1 integrase [3] was “impedes its efficacy as an integrase inhibitor”.
